Source: US5804571A (U.S. Bioscience, priority 1995, dated 1998)

Columns and labels:
[1] = tested on: human immunodeficiency virus (HIV); conditions: cited from earlier work
[2] = AZT recipients, cited from earlier work
[3] = tested on: murine hematopoietic system; test: exogenous spleen colony (CFU-S) assay, toxicity to the murine hematopoietic system; format: in vivo; conditions: CFU-S assay 20 hrs after drug administration, mice
Description: To evaluate toxicity to the murine hematopoietic system, an exogenous spleen colony (CFU-S) assay was used. A suitable number of murine […] are injected (intravenously) into lethally irradiated syngeneic mice (Ref. Hodgson, G. S., and Bradley, T. R., Properties of Haematopoietic Stem Cells Surviving 5-FU Treatment: Evidence for a pre-CFU-S Cell48, Nature 281:381, 1979).
Colonies are found in the spleen of the recipients on Day 9 or 10; there is a linear relationship between the number of cells injected and the number of spleen colonies. The spleen colonies originate from a single cell, and contain cells of the erythroid, granulocytic and megakaryocytic series.
At 20 hours after drug administration, each mouse was sacrificed and bone marrow was extracted from the femurs into McCoy's 5A medium (GIBCOm Grand Island, N.Y.) on ice. Nucleated marrow cells were quantitated, and 5×10^4 cells were injected intravenously into syngeneic recipient mice one hour after they received 800 rads whole body radiation. Nine days later, the recipient animals were sacrificed, and the spleens were removed and fixed in Boulin's solution. Surface colonies were then counted.

[4] = placebo 4 percent (P less than 0.001)

SMILES | clinical benefits with AIDS ([1]; AIDS patients) | serious adverse reactions ([1]; human, in vivo) | neutropenia (less than 500 cells per cubic millimeter), share of recipients ([2]; placebo 2 percent (P less than 0.001)) [%] | anemia with hemoglobin levels below 7.5 per deciliter, share of recipients [2, 4] [%] | required multiple red-cell transfusions, share of recipients [2, 4] [%] | CFU-S Survival (% of Control) ([3]; AZT alone, 400 mg/kg ip) [%] | CFU-S Survival (% of Control) ([3]; phosphorothioate 900 mg/kg po, followed in 30 minutes with AZT 400 mg/kg ip) [%]
Cc1cn([C@H]2C[C@H](N=[N+]=[N-])[C@@H](CO)O2)c(=O)[nH]c1=O [AZT, 3'-azido-3'-deoxythymidinc] | clinical benefits with AIDS have been reported | serious adverse reactions, particularly bone marrow suppression were observed | 16 | 24 | 21 | 18 | –
CNCCCNCCCSP(=O)(O)O [S-3-(3-methylaminopropylamino)propyl dihydrogen phosphorothioate] | – | – | – | – | – | – | 68
